Common to all, as to experiment: NCI tumour cell line growth inhibition, 48 h
Test [1] has as its system BT-549.
Test [2] deals with DU-145.
Test [3] deals with HCC 2998.
The subject of test [4] is HCT-116.
Test [5] has as its system HCT-15.
Test [6] has as its system HOP-92.
Test [7] concerns KM12.
Test [8] deals with MDA-MB-435.
The subject of test [9] is MDA-N.
The subject of test [10] is OVCAR-4.
Test [11] deals with RPMI-8226.
The test system of test [12] is SF-268.
Test [13] has as its system SF-295.
The test system of test [14] is SK-MEL-2.
For test [15], the system named is SK-MEL-5.
Test [16] deals with SNB-75.
Test [17] deals with T47D.
Test [18] has as its system UACC-257.
Test [19] deals with UACC-62.
For test [20], the system named is DLD-1.

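Interpolation was linear, between the two tested concentrations surrounding the appropriate level; five concentrations were tested over 48 hours in 96-well plates. GI50 marks 50% less growth.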 Active and inactive are the calls of the source. Cut-off read from the data, not from the text of the source: active = GI50 up to about 1.1 µM and inactive = higher.

As for `C[C@@]12C[C@@H](c3ccccc3O1)N1CCCSC1=N2`, the GI50 is > 100 µM (inactive) in test [1]; > 100 µM (inactive) in test [2]; > 100 µM (inactive) in [3]; > 100 µM (inactive) in test [4]; over 100 µM in test [5]; > 100 µM (inactive) in test [6]. For the same molecule, the GI50 in test [7], in test [8], in [9], in test [10], in test [11] and in test [12] was > 100 µM (inactive) each time. The GI50 in [13], in test [14], in test [15], in test [16], in test [17] and in test [18] was > 100 µM (inactive) each time. For the same molecule, the GI50 in test [19] is > 100 µM (inactive).
Take `Cc1nn2c3c(nnc2c1C#N)C(=O)NN=C(N)S3`: the GI50 in test [20], in test [4], in [6], in test [7], in test [10] and in [11] was > 100 µM (inactive) throughout. For the same molecule, the GI50 in test [12], in test [13], in test [15] and in [19] was > 100 µM (inactive) each time.
For `FC(F)(F)c1nc(-c2ccccc2Cl)[nH]c1C(F)(F)F`, the GI50 was 1.13 µM (inactive) in test [20]; 0.729 µM (active) in test [4]; 0.875 µM in test [5]; 0.408 µM (active) in test [6]; 0.975 µM (active) in [7]; 0.664 µM (active) in test [10]. Further, the GI50 in test [11] was 2.66 µM (inactive); in test [12], 1.23 µM (inactive); in [13], 0.681 µM (active); in test [14], 0.501 µM (active); in test [15], 0.348 µM (active); in [16], 1.07 µM (active). The results for the GI50 in [18] and in test [19] were 0.646 µM (active) and 0.766 µM (active), respectively.
Regarding `CC(C)[S+]1C2=C(CC(C)(C)CC2=O)[N-]c2ccccc21` (stereo unspecified), the GI50 is > 100 µM (inactive) in test [1]; > 100 µM (inactive) in test [2]; > 100 µM (inactive) in test [3]; > 100 µM (inactive) in [4]; over 100 µM in [5]; > 100 µM (inactive) in test [6]. Further, the GI50 in [7], in test [8], in test [9], in test [10], in [11] and in test [12] was > 100 µM (inactive) each time. In addition, the GI50 in [13], in test [14], in test [15], in test [16], in test [17] and in test [18] was > 100 µM (inactive) in each case. Further, the GI50 in [19] was > 100 µM (inactive).
Consider `C1=C(c2ccccc2)CN(c2ccccc2)OC1`, for which the GI50 was 78.5 µM (inactive) in [20]; > 100 µM (inactive) in test [3]; 77.4 µM in test [5]; > 100 µM (inactive) in test [7]; > 10 µM (inactive) in test [10]; 44.8 µM (inactive) in test [11]. The GI50 was 79.3 µM (inactive) in test [12], 50.6 µM (inactive) in test [14], 66.4 µM (inactive) in test [16] and 67.3 µM (inactive) in test [19].
`Brc1ccc2[nH]cc(-c3csc(-c4c[nH]c5ccc(Br)cc45)n3)c2c1`: the GI50 in test [1] was 5.75 µM (inactive); in test [2], 2.52 µM (inactive); in test [3], 1.86 µM (inactive); in test [4], 1.68 µM (inactive); in [5], 2.02 µM; in test [6] it was 1.69 µM (inactive). Moreover, the GI50 in test [7] is 1.47 µM (inactive); in test [8] it was 1.93 µM (inactive); in test [9] it was 2.25 µM (inactive); in test [10], 2.26 µM (inactive); in test [11], 1.64 µM (inactive); in test [12], 2.05 µM (inactive). In addition, the GI50 in [13] is 2.48 µM (inactive); in [14], 1.9 µM (inactive); in [15] it was 1.64 µM (inactive); in test [16] it was 2.39 µM (inactive); in test [17], 2.44 µM (inactive); in test [18], 2.92 µM (inactive). Also, the GI50 in [19] was 1.85 µM (inactive).
As to `CN1CCN(c2c(Cl)cc(Cl)c3[nH]c4ccccc4c(=O)c23)CC1`, the GI50 in test [1] is 16.1 µM (inactive); in test [2] it was 5.4 µM (inactive); in test [3], 5.66 µM (inactive); in [4], 3.21 µM (inactive); in test [5], 3.39 µM; in test [6] it was 1.35 µM (inactive). The GI50 in test [7] is 6.11 µM (inactive); in test [8], 5.71 µM (inactive); in [9], 8.41 µM (inactive); in test [10], 11.7 µM (inactive); in [11], 3.1 µM (inactive); in test [12], 2.86 µM (inactive). Besides, the GI50 was 5.85 µM (inactive) in [13]; 12.2 µM (inactive) in test [14]; 9.71 µM (inactive) in [15]; 9.91 µM (inactive) in [16]; 9.23 µM (inactive) in [17]; 8.45 µM (inactive) in test [18]. The GI50 in [19] was 4.68 µM (inactive).
In the case of `NC(=O)N/N=C(\CCC(=O)N(Cc1ccccc1)Cc1ccccc1)CC(=O)c1ccc(F)cc1`, the GI50 is > 100 µM (inactive) in test [20]; > 100 µM (inactive) in [3]; > 100 µM (inactive) in [4]; over 100 µM in [5]; > 100 µM (inactive) in test [7]; > 100 µM (inactive) in test [10]. Further, the GI50 in test [12], in [13], in test [14], in test [15], in test [18] and in test [19] was > 100 µM (inactive) each time.
Take `O=c1[nH]cc(COCCCO)c(=O)[nH]1`: the GI50 in [20] is > 100 µM (inactive); in test [4] it was > 100 µM (inactive); in test [5] it was over 100 µM; in test [6] it was > 100 µM (inactive); in test [7] it was > 100 µM (inactive); in [10], > 100 µM (inactive). For the same molecule, the GI50 in test [11], in test [12], in test [13], in [14], in test [15] and in [16] was > 100 µM (inactive) in each case. For the same molecule, the GI50 in test [18] and in test [19] was > 100 µM (inactive) throughout.
Regarding `O=[N+]([O-])c1ccc(N2C[N+](c3ccccc3)=NC(c3ccccc3)=N2)cc1`, the GI50 in test [20] was 32.2 µM (inactive); in test [4] it was 23.3 µM (inactive); in test [5], 28.6 µM; in [6], 35.7 µM (inactive); in [7], 29.4 µM (inactive); in test [10], 44.5 µM (inactive). Besides, the GI50 in test [11] was 39.3 µM (inactive); in [12], 29.4 µM (inactive); in [13], 35.6 µM (inactive); in test [14], 20.5 µM (inactive); in [15], 29 µM (inactive); in [16] it was 99.3 µM (inactive). For the same molecule, the GI50 is 38.5 µM (inactive) in [18] and 26.2 µM (inactive) in [19].
For the molecule `C=CCSC1=N/C(=C\c2ccccc2)C(=O)N1CC=C`, the GI50 in test [1] is 40.7 µM (inactive); in [2], > 86.5 µM (inactive); in test [3], 28.9 µM (inactive); in test [4], 29.8 µM (inactive); in test [5], 35.2 µM; in test [6], 17.1 µM (inactive). The GI50 in test [7] was 38.8 µM (inactive); in test [8], 36.8 µM (inactive); in test [9] it was 30.3 µM (inactive); in test [10], 40.6 µM (inactive); in test [11], 24.7 µM (inactive); in [12] it was 6.85 µM (inactive). Further, the GI50 in test [13] is 58.1 µM (inactive); in test [14], 29.6 µM (inactive); in [15] it was 17.8 µM (inactive); in test [16] it was 33.3 µM (inactive); in [17], 29.2 µM (inactive); in [18], 33.2 µM (inactive). For the same molecule, the GI50 in test [19] is 33.3 µM (inactive).
With `CCO/C([O-])=C(\C(=O)c1ccc([N+](=O)[O-])cc1)[n+]1c(C)n(C)c2ccccc21`, the GI50 in test [20], in test [3], in test [4], in test [7], in test [10] and in test [11] was > 100 µM (inactive) each time. Besides, the GI50 in test [12], in test [13], in [14], in test [15], in test [16] and in test [18] was > 100 µM (inactive) in each case. Further, in test [19], the GI50 is > 100 µM (inactive).
As to `Cc1cccc2c(N)c3cccc(C(=O)NCCCNCCN)c3nc12`, the GI50 was 14.6 µM (inactive) in test [1]; 3.59 µM (inactive) in test [2]; 4.35 µM (inactive) in test [3]; 7.5 µM (inactive) in test [4]; 28.3 µM in [5]; 5.61 µM (inactive) in test [6]. For the same molecule, the GI50 is 4.8 µM (inactive) in [7]; 15.5 µM (inactive) in test [8]; 13.7 µM (inactive) in test [9]; 1.87 µM (inactive) in [10]; 7.08 µM (inactive) in test [11]; 0.124 µM (active) in [12]. Also, the GI50 is 4.45 µM (inactive) in test [13]; 16.3 µM (inactive) in [14]; 7.11 µM (inactive) in [15]; 0.946 µM (active) in test [16]; 7.85 µM (inactive) in [17]; 16.6 µM (inactive) in [18]. For the same molecule, the GI50 in test [19] was 4.38 µM (inactive).

For the origin of these results see ChEMBL document CHEMBL1201862, “PubChem BioAssay data set” (2004).
